According to patent US20050095219A1, “Compositions for promoting vaginal cell proliferation and maturation” (priority 2003, published 2005):

Tests used:
[1] = test system: Primary vaginal epithelial cells; assay: Glycogen production, periodic acid Schiff (PAS) assay; type: cell-based, human; conditions: 0.1 mg/mL, 5 days treatment, p<0.05 vs control
Description: Primary vaginal epithelial cells were cultured in 96-well plates. Five samples were tested for each group. Treatment was for 5 days with culture medium solutions (PrEBM, Clonetics CC-3165) without (the control group) and with 0.1 mg/mL hyaluronic acid (Sigma H-1751). The media were changed every other day. At the end the treatment, the media was removed, and the well was washed twice with HBSS.
Glycogen tests were performed using a periodic acid Schiff (PAS) assay as described below. Before the test, cells were fixed with a 10 vol % Formalin/ethanol solution for 1 hour at room temperature, followed by continuous rinsing with deionized (DI) water for 1 minute. Harleco® PAS Aassay Kit (from EM Science 64945/43) was used for glycogen detection. The basic principle is that the hydroxy groups on the glycogen units were first oxidized into aldehyde groups by periodic acid, and the aldehyde groups reacted with Schiff's agent to produce a red colorant. The specific assay operations were all done at room temperature as follows: • 1. Periodic acid reagent was added to the well/chamber and allowed to stand for 10 minutes). • 2. Samples were continuously rinsed in water for one minute. • 3. Schiff's reagent was added and allowed to stand for 15 minutes. • 4. […] The numbers of glycogen-stained positive cells were manually counted under microscope.

[2] = test system: E. coli with P family pili, ATCC 53505; assay: E. coli adhesion test on A431 cells; type: cell-based
Description: Cultured A431 cells were used as a model human epithelial cell line. A431 cells were obtained from American Cell Type Culture Collection, catalog # CRL-1555. A monolayer of A431 cells was grown on a 24-well tissue culture plate until confluent. E. coli with P family pili, ATCC 53505, were cultured in trypticase soy broth (TSB) overnight. Phosphate buffered saline (PBS, control) or hyaluronic acid (Sigma, catalog # H1876) solutions at a concentration of 1 mg/ml or 5 mg/ml in PBS were added to the A431 cell layers, using a volume of 1.2 ml/well. For comparison, a control plate was set up and treated identically as the test plate, except that the wells in the control plate were given PBS without hyaluronic acid. After incubation for 30 minutes at 37° C., 0.5 ml of solution was removed from the wells and 0.5 ml of the bacteria suspension was added. […] After 60 minutes, the supernatant in each well was removed and the wells were rinsed thoroughly with PBS to remove all non-bound bacteria. Trypticase soy broth was then added to wells, and the system was incubated at 37° C. with shaking at 100 rpm/min for 2 hours. Bacterial concentration was measured by the detection of optical density of bacterial suspension at 540 nm.
(§1) All the data are expressed as mean ± SEM and were analyzed by one-way Analysis of Variance (ANOVA) followed by a Tukey-Kramer Multiple Comparisons Test. […]

E. coli, ATCC 53505 = assay: Effect on E. coli growth (optical density at 540 nm); type: cell-based; conditions: 1 mg/ml or 5 mg/ml, 1, 2 and 3 hours
Description: To test whether hyaluronic acid could influence cellular growth, E. coli, ATCC 53505 cells were cultured overnight in trypticase soy broth. The culture was then diluted to an optical density of 0.1 and hyaluronic acid (1 mg/ml or 5 mg/ml) in PBS was incubated with the E. coli suspension. A control comprising a suspension E. coli treated with PBS was also prepared. The test and control cells were incubated at 37° C. with shaking and the optical density of the bacterial suspensions at 540 nm was measured at 1, 2 and 3 hours after addition of the hyaluronic acid or PBS. All the data are expressed as mean ± SEM and were analyzed by one-way Analysis of Variance (ANOVA) followed by a Tukey-Kramer Multiple Comparisons Test. Differences were considered significant at the level of p<0.05.

[3] = test system: Candida albicans, ATCC 10231; assay: Candida albicans attachment to A431 cells; type: cell-based
Description: A culture of Candida albicans, ATCC 10231, was started in peptone/glucose culture medium and incubated at 37° C. with shaking for three days before the experiment. A monolayer of A431 cells, ATCC CRL-1555, was grown on a 24-well tissue culture plate until confluent. Hyaluronic acid at concentration of 1 mg/ml or 5 mg/ml in PBS was added to the wells (1.2 ml/well), and the plates were incubated for 30 minutes at 35° C. A control plate of confluent A431 cells was also prepared that received 1.2 ml/well PBS and no hyaluronic acid. After the 30 min incubation, 0.5 ml of solution was removed from the wells and 0.5 ml of yeast suspension (1×10^6 cfu/ml) was added. After 2 hours of incubation, the supernatant was removed from the wells and the wells were rinsed thoroughly with PBS to remove all non-bound yeast. Then, 0.2 ml of 0.25% trypsin/EDTA was added to each well and the plates were incubated at 35° C. for 15 min. Trypsinization was stopped by adding 1 ml of 10% fetal bovine serum in culture medium. The trypsinized cell/yeast suspension was centrifuged and re-suspended in 1 ml of the medium. […] The number of colonies on each plate was counted and the number of yeast attached to the cells in each well was calculated.
as §1

[4] = test system: Normal human vaginal epithelial cells (NHVE 5164); assay: Vaginal cell proliferation (CellTiter 96 Aqueous One Solution); type: cell-based; conditions: complete medium, 72 hours
Description: Normal human vaginal epithelial cells from Clonetics (NHVE 5164) were subcultured into 96 well plates at 37° C., 5% CO2. Cells were cultured with basal PrEBM (Clonetics CC 3165) supplemented with cell growth medium bulletKit (Clonetics, cc-3166). Cells were treated with HLA having different molecular weights (MW), HLA1 (Sigma #H1751, intrinsic viscosity=100), HLA2 (MW, 150-500 k, Carbomer #8-01250) and HLA3 (a disaccharide, MW 405, Sigma #H9649). HLA was dissolved in either basal culture medium or basal medium supplemented with growth factors (complete medium) at concentration of 100, 10 or 1 μg/ml. Control group cells were treated with culture medium only. Each treatment group included 6 samples. The media for the different samples were changed 48 hours later and cell proliferation was examined at 72 hours by using CellTiter 96 Aqueous One Solution from Promega (#TB245). Twenty μl of the reagent was added to each well. The plates were returned to cell culture incubator for 3 hours. The absorbance in each well was measured at 490 nm with a microtiter reader.

hyaluronic acid
glycogen production (numbers of glycogen-stained positive cells) [1]: increase in glycogen production was statistically significant | number of E. coli attached to A431 cells ([2]; 1 mg/ml in PBS): lesser effect on E. coli adhesion | number of E. coli attached to A431 cells ([2]; 5 mg/ml in PBS): significantly inhibited | E. coli growth (E. coli, ATCC 53505): neither of the hyaluronic acid solutions had any effect on bacterial growth | number of Candida albicans adhering to A431 cells ([3]; 1 mg/ml in PBS): the effect was not so significant | number of Candida albicans adhering to A431 cells ([3]; 5 mg/ml in PBS): significantly inhibited

hyaluronic acid [HLA1]
vaginal cell proliferation compared to control group ([4]; 100 μg/ml): significantly promoted vaginal cell proliferation | vaginal cell proliferation compared to control group ([4]; low concentrations 10 and 1 μg/ml): no significant effect on cell proliferation

hyaluronic acid [HLA2]
vaginal cell proliferation compared to control group ([4]; any of the three concentrations tested (100, 10, 1 μg/ml)): no statistically significant effect
